Two compounds from patent EP0028778B1, “Antibacterial compositions comprising a beta-lactam-type compound and a 3-substituted propenoate” (Merck & Co., Inc., priority 1979, dated 1981) can be followed below.

The subject of data set [1] is rabbits. The data set can be described thus: Nephrotoxicity of NFT alone or in combination with DMCO, intravenous, rabbits, 48 hours. The following applies: for numbers of rabbits with renal tubular necrosis/numbers of rabbits tested / Renal Tubular Necrosis (degree) / BUN / Creatinine: i.v., 48 hours, rabbits; for Renal Tubular Necrosis (degree): histology; for BUN: mean; for Creatinine: mean serum. The data set is classed as in vivo, New Zealand white rabbits. On the procedure:
The compound N-formimidoyl theinamycin (NFT) and the compound Z-2-(2,2-dimethylcyclopropane carboxamido)-2-ocetenoic acid (DMCO) were tested in rabbits to evaluate nephrootoxicity.
Either NFT alone or in combination with DMCO was administered intravenously to rabbits. After 48 hours blood samples were taken for determination of BUN and creatinine concentrations and the rabbits were killed for histologic examination of kidney sections.
The study was initiated with 28 New Zealand white rabbits which ranged in age from 23 to 27 weeks, and in weight from 2.78 to 3.71 kg for males and 2.81 to 3.85 kg for females. All animals were housed in individual stainless steel cages and maintained in climate-controlled rooms with access to food (Purina Rabbit Chow) and tap water ad libitum.
NFT was administered to six groups of 2 male and 2 female rabbits each at a nominal dose of 180 mg/kg. Five of these groups received DMCO in addition to NFT at nominal doses of 90, 30, 10, 3 or 1 mg/kg. All doses were administered via the marginal ear vein at a dosage volume of 1.89 ml/kg. An additional group of 2 male and 2 female rabbits received 0.9% sterile saline and served as controls.
NFT was dissolved in solutions of sodium bicarbonate (NFT alone group) or sterile solutions of DMCO in sodium bicarbonate at five different concentrations; these solutions were prepared immediately prior to use.
The mean BUN and serum creatinine concentrations and the degrees of renal tubular epithelial necrosis are shown below in Table I: […]

Data set [2] relates to rabbits. The description is as above. The following applies: single large doses, within 48 hours, dose rates comparable to those used with cephaloridine. The data set is classed as in vivo, New Zealand white rabbits.

As for `CCCCC/C=C(\NC(=O)C1CC1(C)C)C(=O)O` (centres unmarked) [DMCO, Z-2-(2,2-dimethylcyclopropanecarboxamido)-2-octenoic acid], the “numbers of rabbits with renal tubular necrosis/numbers of rabbits tested” value with rabbits [1] (NFT 180 mg/kg + DMCO 1 mg/kg) is listed as 4/4; in the data set with rabbits [1] (NFT 180 mg/kg + DMCO 3 mg/kg), 4/4; with rabbits [1] (NFT 180 mg/kg + DMCO 10 mg/kg), 4/4; in the data set with rabbits [1] (NFT 180 mg/kg + DMCO 30 mg/kg), 4/4; in the data set on rabbits [1] (NFT 180 mg/kg + DMCO 90 mg/kg), 0/4. Further, the “Renal Tubular Necrosis (degree)” value is “Marked-Severe” in the data set with rabbits [1] (NFT 180 mg/kg + DMCO 1 mg/kg); “Marked” with rabbits [1] (NFT 180 mg/kg + DMCO 3 mg/kg); “Moderate-Marked” with rabbits [1] (NFT 180 mg/kg + DMCO 10 mg/kg); “V. Sl.-Moderate” in the data set with rabbits [1] (NFT 180 mg/kg + DMCO 30 mg/kg); “None” in the data set on rabbits [1] (NFT 180 mg/kg + DMCO 90 mg/kg). The BUN in the data set with rabbits [1] (NFT 180 mg/kg + DMCO 1 mg/kg) is listed as 64.7^S mg/100 ml; with rabbits [1] (NFT 180 mg/kg + DMCO 3 mg/kg) it was 65.8^S mg/100 ml; in the data set on rabbits [1] (NFT 180 mg/kg + DMCO 10 mg/kg), 53.1^S mg/100 ml; in the data set on rabbits [1] (NFT 180 mg/kg + DMCO 30 mg/kg), 26.1^NS mg/100 ml; in the data set with rabbits [1] (NFT 180 mg/kg + DMCO 90 mg/kg), 16.6^NS mg/100 ml. In addition, the Creatinine with rabbits [1] (NFT 180 mg/kg + DMCO 1 mg/kg) is 4.2^S mg/100 ml; in the data set on rabbits [1] (NFT 180 mg/kg + DMCO 3 mg/kg), 4.2^S mg/100 ml; with rabbits [1] (NFT 180 mg/kg + DMCO 10 mg/kg) it was 2.9^S mg/100 ml; in the data set on rabbits [1] (NFT 180 mg/kg + DMCO 30 mg/kg) it was 1.3^NS mg/100 ml; in the data set with rabbits [1] (NFT 180 mg/kg + DMCO 90 mg/kg), 1.2^NS mg/100 ml. In the data set on rabbits [1] (co-administration with the antibiotic, general statement), the “ability to prevent nephrotoxicity” value is “has been shown to possess this property”.
As to `C[C@@H](O)[C@H]1C(=O)N2C(C(=O)O)=C(SCCN=CN)C[C@H]12` [NFT, N-formimidoyl thienamycin], the “nephrotoxic potential in the rabbit laboratory model” value in the data set on rabbits [2] is “nephrotoxic”. Besides, in the data set on rabbits [1] (NFT 180 mg/kg alone), the “numbers of rabbits with renal tubular necrosis/numbers of rabbits tested” value is given as 4/4, the “Renal Tubular Necrosis (degree)” value is given as “Marked-Severe”, the BUN is reported as 70.0^S mg/100 ml and the Creatinine is 4.2^S mg/100 ml.
